# According to patent US20260224494A1, “MILVEXIAN PHARMACEUTICAL COMPOSITIONS” (BRISTOL-MYERS SQUIBB COMPANY, priority 2023, published 2026):
# “And” between values parts separate entries of the source, which are not always exact repeats. Equal values may be shown once. Read-outs that look alike come from different tables or passages of the source.
# Legend:
# Assay type in all cases: physicochemical
# [1] = Solubility of milvexian forms in organic solvent systems; conditions: 20 °C, organic solvent or mixture, thermodynamic from solid, 20° C.; for solubility at 2 weeks: read-out: Solubility in mg/mL solution 2 weeks; for solubility at 24 hours: read-out: Solubility in mg/mL solution 24 hours
# Protocol: While heating of the feed solution is a viable solution for production, it is a more complex set-up and with risk of crashing out dissolved solids in case of cold spots and plant safety. Various solvent systems (See Table 11 below) were investigated with primary focus on solvent systems containing DCM due to its low boiling point and excellent solubilization properties.
# Based on the data it was determined that 70/30 w/w % DCM/MeOH and 80/20 w/w % were promising solvent mixtures and more accurate solubility determination was carried out for 80/20 w/w % DCM/MeOH for both FORM A and P1.Acetone solvate at 20° C. with the results shown in Table 12 below.
# P1.Acetone was the preferred crystalline form of milvexian for physical stability and manufacturability reasons. Based on the above, 80/20 w/w % DCM/MeOH solvent system was selected for development due to highly increase solubility over the 90/10 w/w % Acetone/Water solvent system.
# [2] = Solubility test of milvexian (P1.Acetone) in DCM/MeOH 70/30 w/w %, appearance over 20 hours; conditions: 3.75 g in 19.83 g DCM and 8.5 g MeOH (70/30 w/w %); approximately 20 hours stirring
# Protocol: Due to the turbid appearance of the solution when dissolving the milvexian (P1.Acetone) in 70/30 w/w % DCM/MeOH, a solubility test was performed by adding 3.75 g of milvexian (P1.Acetone) to a mixture of 19.83 g DCM and 8.5 g MeOH (DCM/MeOH 70/30 w/w %) under stirring by a magnetic stirrer. The appearance of the solution was evaluated at different timepoints over 20 hours.
# [3] = Solubility in different aqueous media at 37° C.; conditions: for solubility at 1 day / solubility at 3 days: 37 °C, thermodynamic from solid
compound,measurement,setting,value
C[C@@H]1CCC[C@H](n2cnc(-c3cc(Cl)ccc3-n3cc(Cl)nn3)cc2=O)c2cc(ccn2)-c2c(cnn2C(F)F)NC1=O [P1.Acetone solvate],solubility at 2 weeks,"[1]; 60/40 DCM/MeOH, 60/40 DCM/MeOH",99 mg/mL
same,solubility at 24 hours,"[1]; 60/40 DCM/MeOH, 60/40 DCM/MeOH",102 mg/mL
same,solubility at 2 weeks,"[1]; 70/30 DCM/MeOH, 70/30 DCM/MeOH",160 mg/mL
same,solubility at 2 weeks,"[1]; 80/20 DCM/MeOH, 80/20 DCM/MeOH",227 mg/mL
same,solubility at 24 hours,"[1]; 80/20 DCM/MeOH, 80/20 DCM/MeOH",226 mg/mL
same,solubility at 2 weeks,"[1]; 90/10 DCM/MeOH, 90/10 DCM/MeOH",225 mg/mL
same,solubility at 24 hours,"[1]; 90/10 DCM/MeOH, 90/10 DCM/MeOH",222 mg/mL
same,solubility at 2 weeks,"[1]; 95/5 DCM/MeOH, 95/5 DCM/MeOH",162 mg/mL
same,solubility at 24 hours,"[1]; 95/5 DCM/MeOH, 95/5 DCM/MeOH",163 mg/mL
same,solubility at 2 weeks,"[1]; 100% DCM, 100% DCM",33 mg/mL
same,solubility at 24 hours,"[1]; 100% DCM, 100% DCM",33 mg/mL
same,solubility at 2 weeks,"[1]; 100% MeOH, 100% MeOH",4.8 mg/mL
same,solubility at 24 hours,"[1]; 100% MeOH, 100% MeOH",4.6 mg/mL
same,"solubility test, appearance of the solution",[2],not fully dissolved
same,"Solubility, μg dissolved per mL at 37° C., replicates","[3]; 0.05M sodium acetate buffer pH 4.5, 1 day, single replicates",1.57 µg/mL
same,"Solubility, μg dissolved per mL at 37° C., replicates","[3]; 0.05M sodium acetate buffer pH 4.5, 3 days, single replicates",1.95 µg/mL
same,"Solubility, μg dissolved per mL at 37° C., replicates","[3]; 0.05M sodium phosphate buffer pH 6.8, 1 day, single replicates",1.29 µg/mL and 1.48 µg/mL
same,"Solubility, μg dissolved per mL at 37° C., replicates","[3]; 0.05M sodium phosphate buffer pH 6.8, 3 days, single replicates",1.62 µg/mL
same,solubility at 1 day,"[3]; 0.1M HCl, pH 1, simulated gastric fluid, 0.1M HCl, 1 day, average of 3 replicates, read-out: Solubility, μg dissolved per mL at 37° C., Average",3.43 µg/mL
same,solubility at 1 day,"[3]; 0.1M HCl, pH 1, simulated gastric fluid, 0.1M HCl, 1 day, single replicates, read-out: Solubility, μg dissolved per mL at 37° C., replicates",3.36 µg/mL
same,solubility at 3 days,"[3]; 0.1M HCl, pH 1, simulated gastric fluid, 0.1M HCl, 3 days, average of 3 replicates, read-out: Solubility, μg dissolved per mL at 37° C., Average",3.49 µg/mL
same,solubility at 3 days,"[3]; 0.1M HCl, pH 1, simulated gastric fluid, 0.1M HCl, 3 days, single replicates, read-out: Solubility, μg dissolved per mL at 37° C., replicates",3.59 µg/mL
same,"Solubility, μg dissolved per mL at 37° C., replicates","[3]; 0.1M HCl, 1 day, single replicates",3.47 µg/mL and 3.46 µg/mL
same,"Solubility, μg dissolved per mL at 37° C., replicates","[3]; 0.1M HCl, 3 days, single replicates",3.30 µg/mL and 3.58 µg/mL
same,solubility at 1 day,"[3]; sodium acetate buffer, pH 4.5, aqueous buffer, 0.05M sodium acetate buffer pH 4.5, 1 day, average of 3 replicates, read-out: Solubility, μg dissolved per mL at 37° C., Average",1.69 µg/mL
same,solubility at 1 day,"[3]; sodium acetate buffer, pH 4.5, aqueous buffer, 0.05M sodium acetate buffer pH 4.5, 1 day, single replicates, read-out: Solubility, μg dissolved per mL at 37° C., replicates",1.81 µg/mL
same,solubility at 3 days,"[3]; sodium acetate buffer, pH 4.5, aqueous buffer, 0.05M sodium acetate buffer pH 4.5, 3 days, average of 3 replicates, read-out: Solubility, μg dissolved per mL at 37° C., Average",1.88 µg/mL
same,solubility at 3 days,"[3]; sodium acetate buffer, pH 4.5, aqueous buffer, 0.05M sodium acetate buffer pH 4.5, 3 days, single replicates, read-out: Solubility, μg dissolved per mL at 37° C., replicates",1.85 µg/mL
same,solubility at 1 day,"[3]; sodium phosphate buffer, pH 6.8, aqueous buffer, 0.05M sodium phosphate buffer pH 6.8, 1 day, average of 3 replicates, read-out: Solubility, μg dissolved per mL at 37° C., Average",1.43 µg/mL
same,solubility at 1 day,"[3]; sodium phosphate buffer, pH 6.8, aqueous buffer, 0.05M sodium phosphate buffer pH 6.8, 1 day, single replicates, read-out: Solubility, μg dissolved per mL at 37° C., replicates",1.53 µg/mL
same,solubility at 3 days,"[3]; sodium phosphate buffer, pH 6.8, aqueous buffer, 0.05M sodium phosphate buffer pH 6.8, 3 days, average of 3 replicates, read-out: Solubility, μg dissolved per mL at 37° C., Average",1.6 µg/mL
same,solubility at 3 days,"[3]; sodium phosphate buffer, pH 6.8, aqueous buffer, 0.05M sodium phosphate buffer pH 6.8, 3 days, single replicates, read-out: Solubility, μg dissolved per mL at 37° C., replicates",1.56 µg/mL
